IC50 data for 34 molecules are collected here from patent US20250221979A1, “NOVEL HETEROCYCLIC COMPOUND” (SHOUYAO HOLDINGS (BEIJING) CO., LTD., priority 2022, published 2025).

Chain of human MAT2A enzyme (P31153 whole entry): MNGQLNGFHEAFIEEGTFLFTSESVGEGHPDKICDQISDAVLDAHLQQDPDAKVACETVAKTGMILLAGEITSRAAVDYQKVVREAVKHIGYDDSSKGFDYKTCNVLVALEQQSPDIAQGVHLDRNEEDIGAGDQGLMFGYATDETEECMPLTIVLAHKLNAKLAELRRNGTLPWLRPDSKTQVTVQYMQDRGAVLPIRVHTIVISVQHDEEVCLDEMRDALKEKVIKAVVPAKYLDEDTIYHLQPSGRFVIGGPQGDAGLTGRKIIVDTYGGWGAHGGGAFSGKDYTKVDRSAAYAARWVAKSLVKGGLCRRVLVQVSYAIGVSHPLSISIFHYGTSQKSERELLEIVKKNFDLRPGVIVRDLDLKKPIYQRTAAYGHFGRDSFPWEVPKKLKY

In the assay the target is human MAT2A enzyme (Homo sapiens (Human), UniProt P31153). The assay can be described thus: In vitro enzymatic inhibition activity assay on MAT2A (PiColorLock phosphate detection). In kind it is biochemical. The following applies: purified human MAT2A 10 nM, ATP 50 μM, L-methionine 100 μM, 6 h at 23° C.; read-out: MAT2A inhibitory activity IC50. As for the experimental part:
Enzymatic activity assays of compounds of this patent against MAT2A (to detect half inhibitory concentration IC50 values of the compounds) were performed using the phosphate detection kit PiColorLockTM (ab270004, purchased from Abcam). This method utilized the principle that purified human MAT2A enzyme catalyzes the formation of S-adenosylmethionine (SAM) from L-methionine and ATP to release free phosphate, and used the spectrophotometric method to quantify phosphate, so as to determine the enzymatic activity of MAT2A. Compounds were diluted in a 10-fold gradient starting at 1 mM with 100% DMSO (for a total of 8 concentrations) and 2 μL of each concentration was added to 48 μL of reaction buffer (50 mM Tris-HCl PH 7.5, 50 mM KCl, 10 mM MgCl2, 0.01% Brij-35, 0.01% BSA, 1 mM DTT) and mixed well. The final diluted compound was prepared, and 5 μL of MAT2A enzyme (final concentration of 10 nM), 5 μL of ATP (final concentration of 50 μM), and 5 μL of L-methionine (final concentration of 100 μM) were added to each well of a 384-well plate (#3701, purchased from CORNING). After the 384-well plate was placed in the incubator at 23° C. for 6 h, 5 μL of PiColorLock reagent diluted Accelerator (dilution ratio 1:100) was added to each well, and the reaction was stopped by incubating in the incubator at 23° C. for 5 min. 2 μL of Stabiliser was added, the absorbance was read at 630 nm on BMG CLARIOstar, and the IC50 value of the compound was calculated by using GraphPad Prism software.
Under the conditions of this experiment, the inhibition of MAT2A by test compounds can be expressed as an IC50 value for the inhibition of the level of phosphate production during the enzymatic reaction.
Regarding `N#Cc1c(N)c2ccc(I)cc2n(-c2ccccc2)c1=O` [Example 4, 4-amino-7-iodo-2-oxo-1-phenyl-1,2-dihydroquinolin-3-carbonitrile], the half-inhibitory concentration (IC50) was found to be 2.28 nM.

`COC(=O)c1c(N)c2ccc(I)cc2n(-c2ccccc2)c1=O` [Example 16, methyl 4-amino-7-iodo-2-oxo-1-phenyl-1,2-dihydroquinoline-3—carboxylate]: the IC50 turned out to be 1.23 nM.

Take `COC(=O)c1c(N)c2ccc(C(F)(F)F)cc2n(-c2ccccc2)c1=O` [Example 17, methyl 4-amino-7-trifluoromethyl-2-oxo-1-phenyl-1,2-dihydroquinoline-3-carboxylate]: the IC50 stood at 3.58 nM.

On to `COC(=O)c1c(N)c2ccc(I)cc2n(-c2ccccc2C)c1=O` [Example 19, methyl 4-amino-7-iodo-1-(2-methylphenyl)-2-oxo-1,2-dihydroquinoline-3-carboxylate], for which the half-maximal inhibitory concentration (IC50) is 2.34 nM.

As for `COC(=O)c1c(N)c2ccc(I)cc2n(-c2ccccc2Cl)c1=O` [Example 20, methyl 4-amino-7-iodo-1-(2-chlorophenyl)-2-oxo-1,2-dihydroquinoline-3-carboxylate], the IC50 was found to be 5.98 nM.

Regarding `COC(=O)c1c(N)c2ccc(C(F)(F)F)cc2n(-c2cccc(CO)c2)c1=O` [Example 21, methyl 4-amino-1-(3-(hydroxymethyl)phenyl)-2-oxo-7-(trifluoromethyl)-1,2-dihydroquinoline-3-carboxylate], the IC50 was determined as 6.58 nM.

As to `C=Cc1ccc2c(N)c(C(=O)OC)c(=O)n(-c3ccccc3)c2c1` [Example 24, methyl 4-amino-7-vinyl-2-oxo-1-phenyl-1,2-dihydroquinoline-3—carboxylate], the IC50 was 2.34 nM.

Consider `COC(=O)c1c(N)c2ccc(C(F)(F)F)cc2n(-c2ccc(OC)cc2)c1=O` [Example 25, methyl 4-amino-1-(4-methoxyphenyl)-2-oxo-7-(trifluoromethyl)-1,2-dihydro quinoline-3-carboxylate], for which the IC50 is 0.43 nM.

In the case of `COC(=O)c1c(N)c2ccc(C(F)(F)F)cc2n(-c2ccc3ccccc3c2)c1=O` [Example 26, methyl 4-amino-1-(naphthalen-2-yl)-2-oxo-7-(trifluoromethyl)-1,2-dihydro quinoline-3-carboxylate], the IC50 amounted to 1.04 nM.

Take `COC(=O)c1c(N)c2ccc(I)cc2n(Cc2ccccc2)c1=O` [Example 28, methyl 4-amino-1-benzyl-7-iodo-2-oxo-1,2-dihydroquinoline-3-carboxylate]: the IC50 was determined as 3.62 nM.

In the case of `COC(=O)c1c(N)c2ccc(C(F)(F)F)cc2n(Cc2ccccc2)c1=O` [Example 29, methyl 4-amino-1-benzyl-2-oxo-7-(trifluoromethyl)-1,2-dihydroquinoline-3-carboxylate], the IC50 stood at 3.79 nM.

As to `COC(=O)c1c(N)c2ccc(Br)cc2n(Cc2ccccc2)c1=O` [Example 30, methyl 4-amino-1-benzyl-7-bromo-2-oxo-1,2-dihydroquinoline-3-carboxylate], the half-maximal inhibitory concentration (IC50) came out at 6.1 nM.

For `Nc1c(C(=O)OC2CC2)c(=O)n(-c2ccccc2)c2cc(Cl)ccc12` [Example 49, cyclopropyl 4-amino-7-chloro-2-oxo-1-phenyl-1,2-dihydroquinolin-3-carboxylate], the IC50 amounted to 8.58 nM.

Take `Nc1c(C(=O)OC2CC2)c(=O)n(-c2ccccc2)c2cc(I)ccc12` [Example 50, cyclopropyl 4-amino-7-iodo-2-oxo-1-phenyl-1,2-dihydroquinolin-3-carboxylate]: the concentration for half-maximal inhibition (IC50) was 4.57 nM.

On to `Nc1c(C(=O)OC2CC2)c(=O)n(-c2ccccc2)c2cc(C(F)(F)F)ccc12` [Example 51, cyclopropyl 4-amino-2-oxo-1-phenyl-7-(trifluoromethyl)-1,2-dihydroquinolin-3-carboxylate], for which the IC50 was 2.62 nM.

Consider `Cc1ccccc1-n1c(=O)c(C(=O)OC2CC2)c(N)c2ccc(I)cc21` [Example 52, cyclopropyl 4-amino-7-iodo-1-(2-methylphenyl)-2-oxo-1,2-dihydroquinolin-3-carboxylate], for which the IC50 came to 2.38 nM.

With `COC(=O)c1c(N)c2ccc(I)cc2n(-c2cccc3c2CCO3)c1=O` [Example 59, methyl 4-amino-1-(2,3-dihydro-1-benzofuran-4-yl)-7-iodo-2-oxo-1,2-dihydro quinoline-3-carboxylate], the IC50 was 5.12 nM.

With `COC(=O)c1c(N)c2ccc(C(F)(F)F)cc2n(-c2ccc(OC(F)F)cc2)c1=O` [Example 63, methyl 4-amino-1-(4-(difluoromethoxy)phenyl)-2-oxo-7-(trifluoromethyl)-1,2-dihydroquinoline-3-carboxylate], the half-maximal inhibitory concentration (IC50) was 1.58 nM.

Turning to `COC(=O)c1c(N)c2ccc(C3CC3)cc2n(-c2ccccc2)c1=O` [Example 66, methyl 4-amino-7-cyclopropyl-2-oxo-1-phenyl-1,2-dihydroquinoline-3-carboxylate], the 50% inhibitory concentration (IC50) turned out to be 6.76 nM.

Regarding `COC(=O)c1c(N)c2ccc(C(F)(F)F)cc2n(-c2ccccc2Cl)c1=O` [Example 69, methyl 4-amino-1-(2-chlorophenyl)-2-oxo-7-(trifluoromethyl)-1,2-dihydro quinoline-3-carboxylate], the IC50 came to 6.39 nM.

In the case of `COC(=O)c1c(N)c2ccc(C3CC3)cc2n(-c2ccc(OC)cc2)c1=O` [Example 73, methyl 4-amino-7-cyclopropyl-1-(4-methoxyphenyl)-2-oxo-1-phenyl-1,2-dihydroquinoline-3-carboxylate], the concentration for half-maximal inhibition (IC50) turned out to be 1.67 nM.

Consider `COC(=O)c1c(N)c2ccc(C(F)(F)F)cc2n(-c2ccc3nc[nH]c3c2)c1=O` [Example 76, methyl 4-amino-1-(3H-benzo[d]imidazol-5-yl)-2-oxo-7-(trifluoromethyl)-1,2-dihydroquinoline-3-carboxylate], for which the IC50 came to 1.71 nM.

Take `COC(=O)c1c(N)c2ccc(Br)cc2n(-c2ccc(F)cc2)c1=O` [Example 78, methyl 4-amino-7-bromo-1-(4-fluorophenyl)-2-oxo-1,2-dihydroquinoline-3-carboxylate]: the IC50 was 2.72 nM.

`COC(=O)c1c(N)c2ccc(I)cc2n(-c2ccc(OC)cc2)c1=O` [Example 79, methyl 4-amino-7-iodo-1-(4-methoxyphenyl)-2-oxo-1,2-dihydroquinoline-3-carboxylate]: the IC50 worked out at 0.61 nM.

As to `COC(=O)c1c(N)c2ccc(C(F)(F)F)cc2n(-c2ccc(OC)cc2C)c1=O` [Example 80, methyl 4-amino-1-(4-methoxy-2-methylphenyl)-2-oxo-7-(trifluoromethyl)-1,2-dihydroquinoline-3-carboxylate], the IC50 worked out at 4.03 nM.

With `COC(=O)c1c(N)c2ccc(C(F)(F)F)cc2n(-c2ccc(Br)cc2)c1=O` [Example 81, methyl 4-amino-1-(4-bromophenyl)-2-oxo-7-(trifluoromethyl)-1,2-dihydro quinoline-3-carboxylate], the 50% inhibitory concentration (IC50) amounted to 1.68 nM.

Take `COC(=O)c1c(N)c2ccc(Br)cc2n(-c2ccc(OC(F)F)cc2)c1=O` [Example 83, methyl 4-amino-7-bromo-1-(4-((difluoromethyl)oxy)phenyl)-2-oxo-1,2-dihydroquinoline-3-carboxylate]: the concentration for half-maximal inhibition (IC50) came to 1.21 nM.

As for `COC(=O)c1c(N)c2ccc(Br)cc2n(-c2ccc(OC)cc2)c1=O` [Example 87, methyl 4-amino-7-bromo-1-(4-methoxyphenyl)-2-oxo-1,2-dihydroquinoline-3-carboxylate], the IC50 is 1.86 nM.

For `COC(=O)c1c(N)c2ccc(Br)cc2n(-c2ccc(Cl)cc2)c1=O` [Example 91, methyl 4-amino-7-bromo-1-(4-chlorophenyl)-2-oxo-1,2-dihydroquinoline-3-carboxylate], the IC50 amounted to 0.93 nM.

With `COC(=O)c1c(N)c2ccc(C(F)(F)F)cc2n(-c2ccccc2Br)c1=O` [Example 93, methyl 4-amino-1-(2-bromophenyl)-2-oxo-7-(trifluoromethyl)-1,2-dihydroquinoline-3-carboxylate], the concentration for half-maximal inhibition (IC50) was found to be 7.39 nM.

`COC(=O)c1c(N)c2ccc(C(F)(F)F)cc2n(-c2ccc(OC)cc2F)c1=O` [Example 97, methyl 4-amino-1-(2-fluoro-4-methoxyphenyl)-2-oxo-7-(trifluoromethyl)-1,2-dihydroquinoline-3-carboxylate]: the half-maximal inhibitory concentration (IC50) turned out to be 9.95 nM.

As for `COC(=O)c1c(N)c2ccc(Br)cc2n(-c2ccc(C)cc2)c1=O` [Example 101, methyl 4-amino-7-bromo-1-(4-methylphenyl)-2-oxo-1,2-dihydroquinoline-3-carboxylate], the 50% inhibitory concentration (IC50) came out at 0.59 nM.

As for `COC(=O)c1c(N)c2ccc(Br)cc2n(-c2ccc(Br)cc2)c1=O` [Example 107, methyl 4-amino-7-bromo-1-(4-bromophenyl)-2-oxo-1,2-dihydroquinoline-3-carboxylate], the IC50 is 1.52 nM.

On to `COC(=O)c1c(N)c2ccc(C(F)(F)F)cc2n(-c2ccc3c(c2)OCC3)c1=O` [Example 111, methyl 4-amino-1-(2,3-dihydro-1-benzofuran-6-yl)-2-oxo-7-(trifluoromethyl)-1,2-dihydroquinoline-3-carboxylate], for which the 50% inhibitory concentration (IC50) came out at 4.06 nM.
